Data from PubChem BioAssay AID2305 (GlaxoSmithKline (GSK), 2010).
pIC50: −log10 of the molar value.

Test system: P. falciparum 3D7 growth, pLDH absorbance
Test: blood-stage malaria parasite growth potency – strain 3D7, dose response (AID 2305)

Row | SMILES | pIC50
1 | CN1CCC(Oc2ccc(CN3CC[C@H](NC(=O)c4ccc(Cl)c(F)c4)C3)c3ccccc23)C1 (some centres not stated) | 6.13
2 | N#Cc1ccc(N(CCCO)Cc2ccccc2C(F)(F)F)cc1C(F)(F)F | 6.01
3 | N#Cc1ccc2nc(-c3ccccc3)[nH]c2c1 | 6.15
4 | Cc1ccc(NC(=O)NCCCCCN2CCC(c3c[nH]c4ccccc34)CC2)cc1I | 6.09
5 | CC(C)c1cccc(OCC2CCN(c3ncc(C(=O)NC4CC4)cc3Cl)CC2)c1 | 6.17
6 | CCN(CCCN1CCCCC1)c1cc(C)nc(Nc2ccc(F)c(C(F)(F)F)c2)n1 | 6.82
7 | CC(C)CCN=C(N)Nc1ccc(OCCCCCOc2ccc(NC(N)=NCCC(C)C)cc2)cc1 | 5.97
8 | O=C(Nc1ccncc1)c1cn(-c2ccccc2)nc1-c1cccs1 | 6.01
9 | CC[C@H]1CN2CC[C@@H]1C[C@H]2[C@H](O)c1cc(-c2ccccc2)nc2ccc(O)cc12 | 6.72
10 | O=C(Nc1ccsc1)Nc1cccc(-c2ccc(-c3nc4ccc(C(F)(F)F)cc4[nH]3)cc2)c1 | 6.46
11 | COc1ccc(NC(=O)Nc2nc3ccccc3s2)cc1N1CCN(C)CC1 | 6.15
12 | Cc1cccc(Nc2nc(C)cc(N3CCCN(CC4CCCCC4)CC3)n2)c1 | 5.95
13 | CC[C@H]1CN2CC[C@@H]1C[C@H]2[C@H](O)c1cc(-c2cc(Cl)cc(Cl)c2)nc2ccc(OC)cc12 | 6.62
14 | CCOc1cc(C)ccc1N(C1CCN(CCCCNC(=O)c2ccc(-c3ccc(C(F)(F)F)cc3)cc2)CC1)S(=O)(=O)c1ccccc1 | 5.99
15 | CC1CN=C(c2ccc(NC(=O)Nc3ccc(C4=NCC(C)N4)cc3)cc2)N1 (configuration not stated) | 6.42
16 | O=C(Nc1cccc(OCc2ccccc2)c1)c1ccc(CN2CCC(Cc3ccccc3)CC2)cc1 | 6.07
17 | COc1cccc(C(=O)Nc2nonc2-c2ccc(OC)c(OC)c2)c1 | 6.10
18 | COC(=O)c1cccc(CNCc2cccc(-c3cccc(-c4nc5ccccc5[nH]4)c3)c2)c1 | 6.30
19 | CC[C@H]1CN2CC[C@@H]1C[C@H]2[C@H](O)c1cc(-c2ccc(F)cc2)nc2ccc(O)cc12 | 6.85
20 | CC(C)Cc1nc2nc(N)nc(N)c2cc1C(C)C | 6.64
21 | CCOC(=O)c1ccc(NC(=O)N(Cc2ccc(-c3ccc(CN4CCNCC4)cc3)cc2)C2CCN(Cc3ccccc3)CC2)cc1 | 6.10
22 | CCN(CC)CCN(Cc1ccc(-c2ccc(C(F)(F)F)cc2)cc1)C(=O)Cn1c(CCc2ccc(F)c(F)c2)nc(=O)c2ccccc21 | 5.80
23 | CC1(C)N=C(N)N=C(N)N1c1cccc(I)c1 | 6.89
24 | CN(CC1CCC(NC(=O)/C=C/c2ccc(Cl)c(Cl)c2)CC1)C1CCC(c2c[nH]c3ccccc23)CC1 (configuration not stated) | 6.08
25 | CCCNS(=O)(=O)c1ccc(NC(=O)C(C)Oc2ccc([N+](=O)[O-])cc2)cc1 (configuration not stated) | 6.14

Row | SMILES | pIC50
26 | Cc1cccc2[nH]c(-c3ccc(-c4cccc(NC(=O)NCc5ccccc5)c4)cc3)nc12 | 6.11
27 | FC(F)(F)c1cccc(N2CCC(CN3CCC(c4c[nH]c5ccccc45)CC3)CC2)n1 | 6.01
28 | CC(C)Sc1nc2c(c(=O)n1CCc1ccccc1)C1(CCCC1)Cc1ccccc1-2 | 6.46
29 | Cc1onc(-c2c(Cl)cccc2Cl)c1C(=O)NC1=NC(C)(C)ON1c1ccccc1 | 5.97
30 | O=C(Nc1ccc(C(=O)OCC(c2ccccc2)c2ccccc2)cc1)N[C@@H](Cc1ccc(O)cc1)C(=O)NC1CCN(Cc2ccc(O)cc2)C1 (some centres not stated) | 6.11
31 | N#Cc1ccc2nc(-c3cc(-c4cccc(F)c4)cnc3N)[nH]c2c1 | 6.72
32 | O=S(=O)(Nc1ccc2nccc(N3CCNCC3)c2c1)c1ccc2c(Cl)cccc2c1 | 6.24
33 | CCNc1cc(C(=O)N[C@@H](Cc2ccccc2)[C@H](O)CNC2(Cc3cccc(Cl)c3)CCC2)cc(N2CCCCS2(=O)=O)c1 | 5.93
34 | O=C(Nc1cccc(-c2nn3ccccc3c2-c2ccnc(Nc3ccccc3)n2)c1)c1cc(F)ccc1F | 6.02
35 | Cc1c(C(=O)Nc2cc(Sc3ccc(F)cc3)cc([N+](=O)[O-])c2)sc2ncn(Cc3cccc(F)c3)c(=O)c12 | 6.14
36 | CC(=O)Nc1ccc(C(=O)Nc2cccc(-c3csc(-c4nc5ccccc5[nH]4)c3)c2)cn1 | 6.92
37 | O=C(Nc1ccc2c(c1)CCN(C1CCC1)CC2)c1cn(-c2ccccc2)nc1-c1ccccc1 | 6.09
38 | CC(C)COc1ccc(Cl)cc1Cc1ccc(-c2nc3ccc(N4CCN(C)CC4)cc3[nH]2)o1 | 6.02
39 | CCCCCCCN1CC[C@H](NC(=O)Nc2ccnc3ccc(OC)cc23)[C@H](CO)C1 | 6.74
40 | Cc1[nH]c2ccccc2c(=O)c1-c1ccc(Cl)cc1 | 6.00
41 | CCCN1CC[C@@H](CCCc2ccnc3ccc(O)cc23)[C@@H](CC)C1 | 6.05
42 | C(=C(c1cccs1)c1cccs1)c1ccc(CNC2CCN(Cc3ccccc3)CC2)cc1 | 6.80
43 | Cc1[nH]c2ccccc2c(=O)c1Br | 6.08
44 | CCC[C@@H]([C@@H](CC1CCCCC1)C(=O)N[C@H](C(=O)Nc1ccccn1)[C@H](C)CC)N(O)C=O | 6.28
45 | COc1ccc(CNC2CCN(C)CC2)cc1-c1ccc(S(=O)(=O)NCCc2ccccn2)s1 | 6.21
46 | FC(F)(F)COc1c(CCNCCCCNCCc2ccc3ccccc3c2OCC(F)(F)F)ccc2ccccc12 | 6.46
47 | O=C(Nc1cccc(-c2ccc(CN3CCCC3)cc2)c1)c1cccc(F)c1 | 6.11
48 | CCOc1cc2ncnc(Nc3ccc(OCc4ccccc4OC)c(OC)c3)c2cc1OCC | 6.06
49 | NC1CCCN(Cc2cccc(-c3ccc(-c4nc5ccc(F)cc5[nH]4)cc3)c2)C1 (configuration not stated) | 6.24
50 | O=[N+]([O-])c1ccc(N2CCCN(C(=S)Nc3ccc(F)cc3Br)CC2)nc1 | 6.52

Row | SMILES | pIC50
51 | CCNCc1cccc(-c2ccc3ccnc(N)c3c2)c1 | 7.30
52 | COc1ccc(-c2ccc(NC(=O)c3cccc(F)c3)cc2)cc1CN1CCCN(C)CC1 | 6.17
53 | Cc1ccc(F)c(OCC2CCCN(c3ccc(C(=O)NC4CC4)cn3)C2)c1 (configuration not stated) | 6.11
54 | CC(Cc1ccc(NC(=O)c2ccc(CNCCCCc3ccccc3)cc2)cc1)NCCc1cccc(Cl)c1 (configuration not stated) | 6.48
55 | O=C(/C=C/c1ccc(Cl)c(Cl)c1)N1CCC(CN2CCC(Cc3nc4ccccc4[nH]3)CC2)CC1 | 6.60
56 | O=C(Nc1ccc(NC2=NCCN2)cc1)Nc1ccc(NC2=NCCN2)cc1 | 6.07
57 | Oc1ccccc1CNCC(O)c1cc(C(F)(F)F)cc(C(F)(F)F)c1 (configuration not stated) | 6.74
58 | COCCNCc1ccc(-c2ccc(CNC3CCN(Cc4ccccc4)CC3)cc2)cc1 | 6.17
59 | COc1ccc(CNC2CCN(C)CC2)cc1-c1ccc(S(=O)(=O)NC2CCC2)c(C)c1 | 6.00
60 | COc1ccccc1C1CCN(C2CCC(NC(=O)/C=C/c3cc(C(F)(F)F)ccc3F)CC2)CC1 (configuration not stated) | 6.06
61 | FC(F)(F)c1cccc(CNCC2CCN(CC3CCCCC3)CC2)c1 | 6.40
62 | COc1ccc(C2=CCN(c3ccc(Cl)c(Cl)c3)C2=O)cc1OCCN1CCCCC1 | 6.11
63 | Cc1cc(N2CCC(C)CC2)nc2cc(O)ccc12 | 5.93
64 | Cc1ccc(-c2cncc(-c3cc(NC4CCN(Cc5ccccc5)CC4)nc(-c4ccccc4)n3)c2)cc1 | 6.14
65 | CCc1cn(C)c2c(N3CCCC3=O)cc(C(=O)N[C@@H](Cc3ccccc3)[C@H](O)CNC(C)(C)CCCC(C)C)cc12 | 6.31
66 | CC(C)N1CCC(NC(=O)N2CCCN(c3ncnc4cc(-c5ccccc5)sc34)CC2)CC1 | 6.07
67 | CCn1ccc2c(N3CCCC3=O)cc(C(=O)N[C@@H](Cc3ccccc3)[C@H](O)CNC(C)(C)CCCC(C)C)cc21 | 6.46
68 | COc1ccc(CNCc2cccc(-c3ccc(-c4nc5ccc(C(F)(F)F)cc5[nH]4)cc3)c2)cc1 | 6.89
69 | Oc1ccc(CCNc2nc(NCCCOc3ccccc3-c3ccc(C(F)(F)F)cc3)nc(N3CCNCC3)n2)cc1 | 6.05
70 | CN1c2ccc([N+](=O)[O-])cc2C(C)(C)C12C=Cc1cc(Br)cc([N+](=O)[O-])c1O2 (configuration not stated) | 6.11
71 | CCN1CCN(Cc2ccc(NC(=O)c3cc4ccc5cccnc5c4[nH]3)cc2)CC1 | 6.07
72 | CCNc1cc(C(=O)N[C@@H](Cc2ccco2)[C@H](O)CNC2CCCCC2)cc(N2CCCCS2(=O)=O)c1 | 6.00
73 | O=[N+]([O-])c1ccc(-n2nc(Cc3ccccc3)n(Cc3cccc(F)c3)c2=S)c(C(F)(F)F)c1 | 6.11
74 | O=C(CCCCCNC(=O)c1ccc(O)c(-c2ccc(Cl)c(Cl)c2)c1)NCCN1CCCC1 | 6.01
75 | Cc1cc2c(NC(=O)NC3CCN(Cc4ccc(Cl)c(Cl)c4)CC3)cccc2cn1 | 6.17

Row | SMILES | pIC50
76 | Cc1ccc2[nH]c(C)c(Br)c(=O)c2c1 | 6.09
77 | N#Cc1ccc(-c2cnc3ccc(NCCc4cccnc4)nn23)cc1 | 6.59
78 | COc1ccccc1-c1cccc(-c2cccc(NC(=O)c3ccc([N+](=O)[O-])o3)c2)n1 | 6.22
79 | Fc1cc(Cl)ccc1Nc1ccnc2cc(I)ccc12 | 5.95
80 | O=C(/C=C/c1ccc(CNCCN2CCOCC2)cc1)NCCc1ccccc1 | 6.07
81 | CC(=O)Nc1sc(C)c(C)c1CN1CCc2ccccc2C1 | 6.21
82 | Cc1cc(N[C@@H](CC(C)C)C(=O)Nc2ccccc2)nc(Nc2ccccc2)n1 | 6.14
83 | CC1CCc2sc(-c3nnc(SC(C)C(=O)N4CCCC4)o3)cc2C1 (configuration not stated) | 6.06
84 | Cn1cncc1CCN(Cc1ccc(-c2ccc(C(F)(F)F)cc2)cc1)C(=O)Cn1c(SCc2cccc(F)c2F)cc(=O)c2ccccc21 | 6.00
85 | Cc1cccc2[nH]c(-c3ccc(-c4cccc(CNCC5CCCO5)c4)cc3)nc12 (configuration not stated) | 6.15
86 | COc1ccc2nccc([C@@H](O)CN3CCC(NCc4cc5cccc6c5n(c4=O)CCC6)CC3)c2c1 | 6.07
87 | O=c1[nH]ccc2nc(N[C@@H]3CCNC3)nc(Nc3cc(Cl)cc(Cl)c3)c12 | 6.13
88 | COc1ccc(-c2ccc(NC(=O)c3ccc(C#N)cc3)cc2)cc1CN(C)CCO | 6.20
89 | Cc1ccccc1C1CCN(C2CCC(NC(=O)c3cc4cc(Cl)ccc4o3)CC2)CC1 (configuration not stated) | 5.92
90 | O=C(NCCCCN1CCC(c2ccc3c(c2OCc2ccccn2)CCCC3)CC1)c1ccc(NC(=O)c2ccc(Cl)cc2)cc1 | 6.10
91 | O=C(/C=C/c1ccc(Cl)c(Cl)c1)NC1CCN(Cc2cccc(O)c2)CC1 | 6.06
92 | CCc1ccc(CN2CCC(NC(=O)c3ccc(-c4ccc(N(C)C)cc4)s3)CC2)cc1 | 5.92
93 | Cc1cccc2[nH]c(-c3ccc(-c4cccc(NC(=O)Nc5ccc(Cl)c(Cl)c5)c4)s3)nc12 | 6.23
94 | Cc1cccc(Nc2nc3nonc3nc2Nc2cccc(Cl)c2Cl)c1C | 5.99
95 | Clc1ccc(Nc2nc(-c3ccccn3)cs2)nc1 | 6.11
96 | O=C(NC1CCC(CCN2CCc3ccc(-c4cnccn4)cc3CC2)CC1)c1cccc(-n2cccn2)c1 (configuration not stated) | 6.05
97 | COCCn1c(-c2cccc(Cl)c2)nn(-c2ccc([N+](=O)[O-])cc2C#N)c1=S | 6.74
